Here are results for 30 compounds from patent US8129424B2, “Indole derivatives as histamine 3 receptor inhibitors for the treatment of cognitive and sleep disorders, obesity and other CNS disorders” (Athersys, Inc., priority 2005, dated 2012).

A value given as a limit tells only on which side of the number the result lay.

The target of the experiment is T1, human histamine H3 receptor (Homo sapiens, UniProt Q9Y5N1).
T1 construct: expressed in transfected cells; host or cells: HT1080-Gqαi5 cells (human), pFG8-HH3 RAGE vector integrated; methotrexate-amplified clone RAGE-H3
T1 sequence (Q9Y5N1 whole entry): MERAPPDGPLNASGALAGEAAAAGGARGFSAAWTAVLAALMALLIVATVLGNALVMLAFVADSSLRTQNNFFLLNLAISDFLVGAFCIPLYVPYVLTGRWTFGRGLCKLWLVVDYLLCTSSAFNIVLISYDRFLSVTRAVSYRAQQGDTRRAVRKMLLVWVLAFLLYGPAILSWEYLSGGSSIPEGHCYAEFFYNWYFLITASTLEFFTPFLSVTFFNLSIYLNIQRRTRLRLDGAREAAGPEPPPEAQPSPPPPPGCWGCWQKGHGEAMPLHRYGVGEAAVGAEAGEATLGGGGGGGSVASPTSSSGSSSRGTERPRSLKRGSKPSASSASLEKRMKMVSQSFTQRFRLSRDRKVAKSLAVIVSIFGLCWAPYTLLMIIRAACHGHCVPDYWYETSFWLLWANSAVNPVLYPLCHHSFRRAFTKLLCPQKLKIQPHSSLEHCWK
Kind of experiment: Radioligand competition binding assay with [125I]iodoproxyfan on RAGE-H3 cell membranes. To be noted: [125I]iodoproxyfan competition binding, apparent Ki by Cheng-Prussof equation. As to the method:
Representative compounds of the present invention that were prepared by the procedures of Examples 1-41 were evaluated in binding assays against cells expressing human H3 receptor by the following procedure.
The human histamine H3 receptor was stably expressed in HT1080 cells containing the chimeric G-protein, Gq[…]i5 (Coward et al., Anal Biochem 1999; 270:242-8). HT1080-Gqαi5 cells were grown in alpha-modified MEM containing 10% fetal bovine serum and 7 μg/ml blasticidin at 37° C. in 5% CO2/95% atmosphere. Cells (4.8×10^9) were irradiated with 50 rads from a ^137Cs source and the pFG8-HH3 RAGE (Random Activation of Gene Expression; see Harrington et al., Nature Biotechnology. 2001; 19:440-45) vector was subsequently integrated into the cells via electroporation (250V, 600 μF, 50Ω). The RAGE vector pFG8-HH3 contained cDNA sequence coding for the first exon (83 amino acids) of human H3 receptor. After electroporation, cells were plated in T75 flasks and grown in alpha-modified MEM. The culture medium was replaced 48 hours after electroporation with alpha-modified MEM, 10% fetal bovine serum, 500 μg/ml hygromycin B and 3 μg/ml puromycin. Medium was replaced every four days during cell expansion. To identify RAGE activated cells expressing the H3 receptor, pools of approximately 10,000 colonies (5×10^7-1.5×10^8 cells total) were screened by PCR for the desired gene product (using primers specific to the RAGE vector and exon 2 of the H3 receptor). […] Positive 100 cells/well pools were identified by PCR, confirmed by sequencing, and subsequently subcloned to 0.8 cells/well. Once clones expressing the H3 receptor were identified by PCR analysis, assays (FLIPR or radioligand binding) were performed to confirm that the activated gene produced functional protein. The protein expression in the initial clones obtained from the RAGE library was increased by growth in the presence of methotrexate. Since the integrated RAGE vector contains the DHFR gene, such treatment selects for cells that have amplified the genetic locus containing the RAGE insert. Subclones obtained after methotrexate amplification were tested for functional activity in FLIPR assays to identify the clone that was most suitable for HTS. The final HT1080-Gqαi5 RAGE clone (RAGE-H3) expressing the human histamine H3 receptor was grown in alpha-modified MEM containing 10% fetal bovine serum, 3 μg/ml puromycin, 500 μg/ml hygromycin B, 3.2 μM methotrexate at 37° C. in 5% CO2/95% atmosphere.
RAGE-H3 cells (10^9) were washed twice with cold PBS, scraped off the plates, and centrifuged at 1000×g for 5 minutes. Cells were resuspended in ice-cold 10 mM Tris HCl, pH 7.4, containing 5 mM EDTA and protease inhibitor cocktail tablets (Roche Molecular Biochemicals). After incubating on ice for 10 minutes, the cells were homogenized with a dounce homogenizer or a polytron tissue grinder, and centrifuged at 1000×g for 10 minutes at 4° C. The resulting supernatant was centrifuged at 32,000×g for 30 minutes at 4° C. The membrane pellets were resuspended in 50 mM Tris HCl, pH 7.4, and stored at −80° C. until use. Protein concentration was determined by the Bradford method (Bio-Rad Laboratories, CA).
Binding assays were carried out in 96-well polypropylene plates in 50 mM Tris HCl, pH 7.4, containing 1 mM EDTA. Reaction mixtures contained 100 μl of membrane suspension, 50 of 4% DMSO, and 50 μl of increasing amounts of [^125I]iodoproxyfan (final concentration 0.0005-1.8 nM for human H3 receptor saturation binding assay). Nonspecific binding was defined by adding 10 μM clobenpropit to the reaction mixtures. Competition binding assays were performed in a reaction mixture containing 100 μl of membrane suspension (˜20 μg of protein/well), 50 μl of [^125I]iodoproxyfan (final concentration of ˜0.15 nM) and 50 μl of test compound. Compounds were dissolved in DMSO and then diluted with 4% DMSO; the final maximal DMSO concentration in the binding assays was 1%. […]
As to `c1ccc2c(c1)cc(C1CC1)n2C1CCC(OCCCN2CCCC2)CC1` (single isomer, unassigned) [Example 39, 2-Cyclopropyl-1-[4-(3-pyrrolidin-1-ylpropoxy)cyclohexyl]-1H-indole], the Ki is less than 10 nM.

Turning to `Cc1cc2ccccc2n1-c1ccc(OCCCN2CCCC2)cc1` [Example 1, 2-Methyl-1-[4-(3-pyrrolidin-1-ylpropoxy)phenyl]-1H-indole], the Ki is less than 10 nM.

In the case of `Cc1cc2ccccc2n1-c1ccc(OCCCN2CCCCC2)cc1` [Example 2, 2-Methyl-1-[4-(3-piperidin-1-ylpropoxy)phenyl]-1H-indole], the Ki was less than 10 nM.

As to `Cc1cc2ccccc2n1-c1ccc(OCCCN2CCC[C@H]2C)cc1` [Example 3, 2-Methyl-1-{4-[3-(2R-methylpyrrolidin-1-yl)propoxy]phenyl}-1H-indole], the Ki is less than 10 nM.

As to `Cc1ccc2c(c1)cc(C)n2-c1ccc(OCCCN2CCCC2)cc1` [Example 11, 2,5-Dimethyl-1-[4-(3-pyrrolidin-1-ylpropoxy)phenyl]-1H-indole], the Ki was less than 100 nM.

For `Clc1ccc2ccn(-c3ccc(OCCCN4CCCC4)cc3)c2c1` [Example 12, 6-Chloro-1-[4-(3-pyrrolidin-1-ylpropoxy)phenyl]-1H-indole], the Ki is less than 100 nM.

Regarding `Cc1cc2cc(F)ccc2n1-c1ccc(OCCCN2CCCC2)cc1` [Example 13, 2-Methyl-5-fluoro-1-[4-(3-pyrrolidin-1-ylpropoxy)phenyl]-1H-indole], the Ki was less than 10 nM.

Take `COc1ccc2c(c1)cc(C(=O)N1CCCC1)n2-c1ccc(OCCCN2CCC[C@H]2C)cc1` [Example 18, (5-Methoxy-1-{4-[3-(2R-methylpyrrolidin-1-yl)propoxy]phenyl}-1H-indol-2-yl)pyrrolidin-1-ylmethanone]: the Ki was less than 10 nM.

In the case of `C[C@@H]1CCCN1CCCOc1ccc(-n2c(C(=O)NC3CCC3)cc3ccccc32)cc1` [Example 19, 1-{4-[3-(2R-Methylpyrrolidin-1-yl)propoxy]phenyl}-1H-indole-2-carboxylic acid cyclobutylamide], the Ki is less than 10 nM.

Consider `C[C@@H]1CCCN1CCCOc1ccc(-n2c(C(=O)NC3CCCC3)cc3ccccc32)cc1` [Example 20, 1-{4-[3-(2R-Methylpyrrolidin-1-yl)propoxy]phenyl}-1H-indole-2-carboxylic acid cyclopentylamide], for which the Ki was less than 10 nM.

In the case of `C[C@@H]1CCCN1CCCOc1ccc(-n2c(C(=O)NC3CCCCC3)cc3ccccc32)cc1` [Example 21, 1-{4-[3-(2R-Methylpyrrolidin-1-yl)propoxy]phenyl}-1H-indole-2-carboxylic acid cyclohexylamide], the Ki is less than 100 nM.

Regarding `C[C@@H]1CCCN1CCCOc1ccc(-n2c(C(=O)NC3CCCCCC3)cc3ccccc32)cc1` [Example 22, 1-{4-[3-(2R-Methylpyrrolidin-1-yl)propoxy]phenyl}-1H-indole-2-carboxylic acid cycloheptylamide], the Ki was less than 100 nM.

Regarding `C[C@@H]1CCCN1CCCOc1ccc(-n2c(C(=O)N3CCCC3)cc3ccccc32)cc1` [Example 23, (1-{4-[3-(2R-Methylpyrrolidin-1-yl)propoxy]phenyl}-1H-indol-2-yl)pyrrolidin-1-ylmethanone], the Ki was less than 10 nM.

Consider `C[C@@H]1CCCN1CCCOc1ccc(-n2c(C(=O)N3CCCCC3)cc3ccccc32)cc1` [Example 24, (1-{4-[3-(2R-Methylpyrrolidin-1-yl)propoxy]phenyl}-1H-indol-2-yl)piperidin-1-ylmethanone], for which the Ki is less than 10 nM.

With `C[C@@H]1CCCN1CCCOc1ccc(-n2c(C(=O)N3CCOCC3)cc3ccccc32)cc1` [Example 25, (1-{4-[3-(2R-Methylpyrrolidin-1-yl)propoxy]phenyl}-1H-indol-2-yl)morpholin-4-ylmethanone], the Ki is less than 10 nM.

As for `CCCCNC(=O)c1cc2ccccc2n1-c1ccc(OCCCN2CCC[C@H]2C)cc1` [Example 26, 1-{4-[3-(2R-Methylpyrrolidin-1-yl)propoxy]phenyl}-1H-indole-2-carboxylic acid butylamide], the Ki is less than 10 nM.

Regarding `CC(C)CNC(=O)c1cc2ccccc2n1-c1ccc(OCCCN2CCC[C@H]2C)cc1` [Example 27, 1-{4-[3-(2R-Methylpyrrolidin-1-yl)propoxy]phenyl}-1H-indole-2-carboxylic acid isobutylamide], the Ki was less than 10 nM.

In the case of `C[C@@H]1CCCN1CCCOc1ccc(-n2c(C(=O)NCC3CCCCC3)cc3ccccc32)cc1` [Example 28, 1-{4-[3-(2R-Methylpyrrolidin-1-yl)propoxy]phenyl}-1H-indole-2-carboxylic acid cyclohexylmethylamide], the Ki is less than 10 nM.

`COc1ccc2c(c1)cc(C(=O)NC1CCCCC1)n2-c1ccc(OCCCN2CCC[C@H]2C)cc1` [Example 29, 5-Methoxy-1-{4-[3-(2R-methylpyrrolidin-1-yl)propoxy]phenyl}-1H-indole-2-carboxylic acid cyclohexylamide]: the Ki was less than 10 nM.

Take `CCOC(=O)c1cc2ccccc2n1-c1ccc(OCCCN2CCCC2)cc1` [Example 30, 1-[4-(3-Pyrrolidin-1-ylpropoxy)phenyl]-1H-indole-2-carboxylic acid ethyl ester]: the Ki was less than 10 nM.

As to `OCc1cc2ccccc2n1-c1ccc(OCCCN2CCCC2)cc1` [Example 31, {1-[4-(3-Pyrrolidin-1-ylpropoxy)phenyl]-1H-indol-2-yl}methanol], the Ki was less than 10 nM.

For `COCc1cc2ccccc2n1-c1ccc(OCCCN2CCCC2)cc1` [Example 32, 2-Methoxymethyl-1-[4-(3-pyrrolidin-1-ylpropoxy)phenyl]-1H-indole], the Ki was less than 10 nM.

As to `c1ccc2c(c1)cc(COC1CCCCC1)n2-c1ccc(OCCCN2CCCC2)cc1` [Example 33, 2-Cyclohexyloxymethyl-1-[4-(3-pyrrolidin-1-ylpropoxy)phenyl]-1H-indole], the Ki was less than 10 nM.

In the case of `CC(C)OCc1cc2ccccc2n1-c1ccc(OCCCN2CCCC2)cc1` [Example 34, 2-Isopropoxymethyl-1-[4-(3-pyrrolidin-1-ylpropoxy)phenyl]-1H-indole], the Ki is less than 10 nM.

`c1ccc2c(c1)cc(COC1CCCC1)n2-c1ccc(OCCCN2CCCC2)cc1` [Example 35, 2-Cyclopentyloxymethyl-1-[4-(3-pyrrolidin-1-ylpropoxy)phenyl]-1H-indole]: the Ki was less than 10 nM.

Turning to `COc1ccc2c(c1)cc(CO)n2-c1ccc(OCCCN2CCCC2)cc1` [Example 36, {5-Methoxy-1-[4-(3-pyrrolidin-1-ylpropoxy)phenyl]-1H-indol-2-yl}methanol], the Ki was less than 10 nM.

Turning to `CCCc1cc2ccccc2n1-c1ccc(OCCCN2CCCC2)cc1` [Example 38, 2-Propyl-1-[4-(3-pyrrolidin-1-ylpropoxy)phenyl]-1H-indole], the Ki was less than 10 nM.

In the case of `COCCc1cc2ccccc2n1-c1ccc(OCCCN2CCCC2)cc1` [Example 40, 2-(2-Methoxyethyl)-1-[4-(3-pyrrolidin-1-ylpropoxy)phenyl]-1H-indole], the Ki is less than 10 nM.

For the compound `OCCc1cc2ccccc2n1-c1ccc(OCCCN2CCCC2)cc1` [Example 41, 2-{1-[4-(3-Pyrrolidin-1-ylpropoxy)phenyl]-1H-indol-2-yl}ethanol], the Ki was less than 10 nM.

With `COCc1cc2cc(OC)ccc2n1-c1ccc(OCCCN2CCCC2)cc1` [Example 42, 5-Methoxy-2-methoxymethyl-1-[4-(3-pyrrolidin-1-ylpropoxy)phenyl]-1H-indole], the Ki was less than 10 nM.
